Data published in patent US6770649B2, “1-[1-(hetero)aryl-1-perhydroxyalkylmethyl]-piperazine compounds, process for their preparation and pharmaceutical compositions containing them” (Solvay Pharmaceuticals GmbH, priority 2001, dated 2004).
pIC50: −log10 of the molar value.

What follows are compounds tested against T1, NK-2 receptors (Cavia porcellus, UniProt Q64077) (assay: Functional NK-2 antagonism on isolated guinea pig gall-bladder preparations (NKA-induced contraction)). Settings: inhibition of contraction caused by NKA 0.1 μmol/l; two hours' incubation; Pirbright-White guinea pig gall-bladder.
T1 construct: the NK-2 receptors present in the gall-bladder preparations; from tissue; host or cells: Pirbright-White guinea pig: isolated gall-bladder (A2); anaesthetised whole animal (A3)
T1 sequence (Q64077 1-402): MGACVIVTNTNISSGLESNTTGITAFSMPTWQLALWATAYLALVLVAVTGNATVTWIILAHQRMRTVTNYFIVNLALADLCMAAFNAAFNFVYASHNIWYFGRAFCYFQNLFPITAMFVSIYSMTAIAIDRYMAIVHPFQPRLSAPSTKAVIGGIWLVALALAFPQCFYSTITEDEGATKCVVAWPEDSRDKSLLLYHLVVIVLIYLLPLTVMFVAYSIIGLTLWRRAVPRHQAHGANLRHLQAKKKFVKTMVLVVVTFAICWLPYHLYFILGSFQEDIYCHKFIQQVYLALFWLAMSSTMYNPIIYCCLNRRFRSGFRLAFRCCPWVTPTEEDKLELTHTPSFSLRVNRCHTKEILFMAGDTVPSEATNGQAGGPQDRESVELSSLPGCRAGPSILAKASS
Type: cell-based
Description: 2. Determination of the Functional Antagonism of the Test Substances on Isolated Guinea Pig Tissue in vitro
The NK-2 receptor-antagonising action of the test substances was determined on isolated gall-bladder preparations from Pirbright-White guinea pigs, held in an oxygen-saturated nutrient solution. To this end, the preparations were fastened on one hand in the nutrient solution to organ holders and on the other hand on a force meter by a thread.
In this test the NK-2 receptors present in the gall-bladder preparations were stimulated with the natural NK-2 receptor agonist neurokinin A (=NKA; 0.1 μmol/l) and the contractions of the preparations caused thereby were measured as contractility in mN (=preliminary value) measured. Then NKA was rinsed out of the preparations with NKA-free solution and the test substances were added in a concentration of 10^−7 mol/l. After two hours' incubation of the preparations with the test substances, the contractions of the preparations then still caused by renewed NKA addition were again measured and the results were given as percentages, relative to the contractions initially measured, caused solely by NKA addition. The concentration of the test substances was increased iteratively in the subsequent experiments as a function of the result in logarithmic whole or half steps, until at least one concentration above or below 50% inhibition of contraction was determined (up to at most 10^−5 mol/l). For each concentration, the average value of inhibition of contraction was calculated from 2 to 4 preparations. In each case, the concentration of half-maximum inhibition (IC50) per test substance was calculated as characteristic variable. In each case the logarithmised value of the IC50 per test substance is given as pIC50 in [mol/l].

pIC50 | SMILES
9.40 | CN(CC(CCN1CCN(C(c2ccco2)[C@H](O)[C@@H](O)[C@H](O)CO)CC1)c1ccc(Cl)c(Cl)c1)C(=O)c1ccccc1 (mixture of isomers) [Example 13]
9.80 | CN(C[C@@H](CCN1CCN(C(c2ccsc2)[C@H](O)[C@@H](O)[C@H](O)CO)CC1)c1ccc(Cl)c(Cl)c1)C(=O)c1ccccc1 (stereo partly drawn) [Example 1, N-((2S)-2-(3,4-dichlorophenyl)-4-{4-[(2S,3R,4R)-2,3,4,5-tetrahydroxy-1-(3-thienyl)pentyl]-1-piperazinyl}butyl)-N-methylbenzamide]
8.70 | CC(=O)OC[C@@H](OC(C)=O)[C@H](OC(C)=O)[C@@H](OC(C)=O)C(c1ccsc1)N1CCN(CC[C@H](CN(C)C(=O)c2ccccc2)c2ccc(Cl)c(Cl)c2)CC1 (stereo partly drawn) [Example 14]
